Values joined by “and” are separate entries in the source; they are usually repeats but may differ in a detail not shown here. Identical values can stand only once. Toxic doses and inconclusive results are not listed. The calls were made as follows: active = survival T/C of 150% or more; inactive = T/C below 125% in these data.
Test system: BDF1 mice, B16 melanoma ip, median survival T/C
Assay: NCI In Vivo Anticancer Drug Screen. Data for tumor model B16 Melanoma (intraperitoneal) in B6D2F1 (BDF1) mice
Details: endpoint: median survival time, higher = longer survival
Summary of the method: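 Vehicle-treated animals serve as the reference (C); treated animals (T) are scored for survival or tumor size after tumor transplantation.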

[1] = dose: 100.0 mg/kg/injection, schedule: Q01DX009 (ip), vehicle: saline with Tween-80
[2] = dose: 200.0 mg/kg/injection, schedule: Q01DX009 (ip), vehicle: saline with Tween-80
[3] = dose: 200.0 mg/kg/injection, schedule: Q01DX009 (ip), vehicle: saline
[4] = dose: 50.0 mg/kg/injection, schedule: Q01DX009 (ip), vehicle: Klucel (hydroxypropylcellulose) (HPC)
[5] = dose: 100.0 mg/kg/injection, schedule: Q01DX009 (ip), vehicle: Klucel (hydroxypropylcellulose) (HPC)
[6] = dose: 200.0 mg/kg/injection, schedule: Q01DX009 (ip), vehicle: Klucel (hydroxypropylcellulose) (HPC)
[7] = dose: 6.25 mg/kg/injection, schedule: Q01DX009 (ip), vehicle: saline
[8] = dose: 12.5 mg/kg/injection, schedule: Q01DX009 (ip), vehicle: saline
[9] = dose: 25.0 mg/kg/injection, schedule: Q01DX009 (ip), vehicle: saline
[10] = dose: 100.0 mg/kg/injection, schedule: Q04DX003 (ip), vehicle: saline
[11] = dose: 200.0 mg/kg/injection, schedule: Q04DX003 (ip), vehicle: saline
[12] = dose: 400.0 mg/kg/injection, schedule: Q04DX003 (ip), vehicle: saline
[13] = dose: 100.0 mg/kg/injection, schedule: Q04DX003 (ip), vehicle: Klucel (hydroxypropylcellulose) (HPC)
[14] = dose: 200.0 mg/kg/injection, schedule: Q04DX003 (ip), vehicle: Klucel (hydroxypropylcellulose) (HPC)
[15] = dose: 400.0 mg/kg/injection, schedule: Q04DX003 (ip), vehicle: Klucel (hydroxypropylcellulose) (HPC)
[16] = dose: 50.0 mg/kg/injection, schedule: Q01DX009 (ip), vehicle: saline

Measured: T/C

CN(C)N=Nc1ccnc2c(I)cccc12
inactive: dose: 25.2 mg/kg/injection, schedule: Q01DX008 (ip), vehicle: DMSO 92 % of control | dose: 42.0 mg/kg/injection, schedule: Q01DX008 (ip), vehicle: DMSO 97 % of control | dose: 70.0 mg/kg/injection, schedule: Q01DX008 (ip), vehicle: DMSO 99 % of control | dose: 116.7 mg/kg/injection, schedule: Q01DX008 (ip), vehicle: DMSO 92 % of control

CC(C)=CCC1=C(O)c2ccccc2C(=O)C1=O
inactive: dose: 6.25 mg/kg/injection, schedule: Q01DX009 (ip), vehicle: saline with Tween-80 90 % of control | dose: 8.33 mg/kg/injection, schedule: Q#B X027 (ip), vehicle: water 100 % of control | dose: 12.5 mg/kg/injection, schedule: Q01DX009 (ip), vehicle: saline with Tween-80 90 % of control | dose: 16.66 mg/kg/injection, schedule: Q#B X027 (ip), vehicle: water 103 % of control | dose: 16.66 mg/kg/injection, schedule: Q#B X027 (sc), vehicle: water 106 % of control | dose: 25.0 mg/kg/injection, schedule: Q#A X018 (oral), vehicle: water 90 % of control | dose: 33.33 mg/kg/injection, schedule: Q#B X027 (ip), vehicle: water 100 % of control | dose: 33.33 mg/kg/injection, schedule: Q#B X027 (oral), vehicle: water 100 % of control | dose: 33.33 mg/kg/injection, schedule: Q#B X027 (sc), vehicle: water 106 % of control | dose: 50.0 mg/kg/injection, schedule: Q01DX009 (ip), vehicle: saline with Tween-80 88 % of control and 97 % of control | dose: 50.0 mg/kg/injection, schedule: Q#A X018 (oral), vehicle: water 86 % of control | dose: 66.66 mg/kg/injection, schedule: Q#B X027 (ip), vehicle: water 96 % of control | dose: 66.66 mg/kg/injection, schedule: Q#B X027 (oral), vehicle: water 106 % of control | dose: 66.66 mg/kg/injection, schedule: Q#B X027 (sc), vehicle: water 93 % of control | [1] 95 % of control | dose: 100.0 mg/kg/injection, schedule: Q01DX018 (oral), vehicle: water 106 % of control | dose: 100.0 mg/kg/injection, schedule: Q#A X018 (oral), vehicle: water 100 % of control | dose: 133.33 mg/kg/injection, schedule: Q#B X027 (oral), vehicle: water 120 % of control | dose: 133.33 mg/kg/injection, schedule: Q#B X027 (sc), vehicle: water 93 % of control | dose: 175.0 mg/kg/injection, schedule: Q01DX018 (oral), vehicle: water 96 % of control | dose: 175.0 mg/kg/injection, schedule: Q#A X018 (oral), vehicle: water 113 % of control | [2] 95 % of control | [3] 119 % of control | dose: 250.0 mg/kg/injection, schedule: Q01DX018 (oral), vehicle: water 106 % of control | dose: 250.0 mg/kg/injection, schedule: Q#A X018 (oral), vehicle: water 106 % of control | dose: 325.0 mg/kg/injection, schedule: Q01DX018 (oral), vehicle: water 113 % of control

O=C(O)CC(NC(=O)OCc1ccccc1)C(=O)OCc1ccccc1 (stereo not drawn)
inactive: [4] 118 % of control | [5] 89 % of control | [6] 92 % of control

COc1ccc(CC(CO)C(CO)Cc2ccc(OC)c(OC)c2)cc1OC (stereo not drawn)
inactive: [5] 93 % of control | [6] 100 % of control | dose: 400.0 mg/kg/injection, schedule: Q01DX009 (ip), vehicle: Klucel (hydroxypropylcellulose) (HPC) 103 % of control

CCC1CN2CCc3cc(OC)c(OC)cc3C2CC1CC1c2cc(OC)c(OC)cc2CCN1C(=O)C(Cc1c[nH]c2ccccc12)NC(=O)OC(C)(C)C (stereo not drawn)
inactive: dose: 8.0 mg/kg/injection, schedule: Q04DX003 (ip), vehicle: saline with Tween-80 102 % of control | dose: 16.0 mg/kg/injection, schedule: Q04DX003 (ip), vehicle: saline with Tween-80 102 % of control | dose: 32.0 mg/kg/injection, schedule: Q04DX003 (ip), vehicle: saline with Tween-80 100 % of control | dose: 64.0 mg/kg/injection, schedule: Q04DX003 (ip), vehicle: saline with Tween-80 110 % of control | dose: 128.0 mg/kg/injection, schedule: Q04DX003 (ip), vehicle: saline with Tween-80 89 % of control

c1ccc(CN2CCNCC2)cc1
inactive: [7] 108 % of control | [8] 108 % of control | [9] 106 % of control

COc1ccccc1CC(C)N (stereo not drawn)
inactive: dose: 20.0 mg/kg/injection, schedule: Q01DX009 (ip), vehicle: saline with Tween-80 97 % of control | dose: 40.0 mg/kg/injection, schedule: Q01DX009 (ip), vehicle: saline with Tween-80 95 % of control

COc1cccc2c1C(=O)c1c(O)c3c(c(O)c1C2=O)C[C@@](O)(C(=O)CO)C[C@@H]3OC1CC(NCc2ccccc2)C(O)C(C)O1 (stereo partly drawn)
active: dose: 15.0 mg/kg/injection, schedule: Q01DX001 (ip), vehicle: water 156 % of control and 171 % of control | dose: 30.0 mg/kg/injection, schedule: Q01DX001 (ip), vehicle: water 171 % of control and 175 % of control

COC(=O)C(CSCc1ccccc1)NC(=O)OCc1ccccc1 (stereo not drawn)
inactive: [4] 87 % of control

C[n+]1cccc(O)c1
inactive: [10] 95 % of control | [11] 97 % of control | [12] 102 % of control

CC(=O)Nc1ccc(OC(=O)Nc2ccccc2Cl)cc1
inactive: [13] 93 % of control | [14] 113 % of control | [15] 106 % of control

CCCCCC(CN(C)C)C(=O)/C=C\c1ccc(Cl)cc1Cl (stereo not drawn)
inactive: [7] 105 % of control | [8] 97 % of control

COc1ccccc1NC(=O)Nc1ccc(F)cc1
inactive: [13] 95 % of control | [14] 95 % of control | [15] 89 % of control

Cc1ccc(C(=O)/C=C/c2ccccc2O)cc1
inactive: dose: 37.5 mg/kg/injection, schedule: Q01DX009 (ip), vehicle: Klucel (hydroxypropylcellulose) (HPC) 103 % of control | dose: 75.0 mg/kg/injection, schedule: Q01DX009 (ip), vehicle: Klucel (hydroxypropylcellulose) (HPC) 90 % of control | dose: 150.0 mg/kg/injection, schedule: Q01DX009 (ip), vehicle: Klucel (hydroxypropylcellulose) (HPC) 98 % of control | dose: 300.0 mg/kg/injection, schedule: Q01DX009 (ip), vehicle: Klucel (hydroxypropylcellulose) (HPC) 88 % of control

O=C1c2ccccc2C(=O)c2c(NCCN3CCCCC3)ccc(NCCN3CCCCC3)c21
inactive: dose: 16.0 mg/kg/injection, schedule: Q01DX009 (ip), vehicle: acid diluted with saline 107 % of control

CCN(CC)CCC1CCNCC1
inactive: [7] 112 % of control | [8] 112 % of control | [9] 106 % of control

Cc1cc2c(cc1C)C(=O)c1ccccc1C2=O
inactive: [9] 91 % of control | [16] 97 % of control | dose: 100.0 mg/kg/injection, schedule: Q01DX009 (ip), vehicle: saline 94 % of control

Cc1ccc([I+]c2ccc(C)cc2C)c(C)c1
inactive: dose: 0.18 mg/kg/injection, schedule: Q01DX009 (ip), vehicle: Klucel (hydroxypropylcellulose) (HPC) 114 % of control | dose: 0.37 mg/kg/injection, schedule: Q01DX009 (ip), vehicle: Klucel (hydroxypropylcellulose) (HPC) 92 % of control | dose: 0.75 mg/kg/injection, schedule: Q01DX009 (ip), vehicle: Klucel (hydroxypropylcellulose) (HPC) 87 % of control | dose: 6.0 mg/kg/injection, schedule: Q01DX009 (ip), vehicle: Klucel (hydroxypropylcellulose) (HPC) 90 % of control

NC(=S)N/N=C\c1ncnc2ccccc12
inactive: dose: 6.25 mg/kg/injection, schedule: Q01DX009 (ip), vehicle: Klucel (hydroxypropylcellulose) (HPC) 124 % of control

O=C(O)C1C2CC(O)C(C2)C1C(=O)O (stereo not drawn)
inactive: [10] 100 % of control and 94 % of control | [11] 100 % of control and 91 % of control | [12] 94 % of control

CC(CO)NC(=O)C1C=C2c3cccc4[nH]cc(c34)CC2N(C)C1 (stereo not drawn)
inactive: [9] 91 % of control | [16] 91 % of control | [3] 86 % of control

CC(SC(C)c1ccccc1)c1ccccc1 (stereo not drawn)
inactive: [1] 101 % of control | [2] 99 % of control | dose: 400.0 mg/kg/injection, schedule: Q01DX009 (ip), vehicle: saline with Tween-80 88 % of control

OC(CCl)Cc1ccccc1 (stereo not drawn)
inactive: [8] 102 % of control | [9] 95 % of control | [16] 100 % of control
